ChEMBL document CHEMBL6120969, “Distinctive Immune Signatures Driven by Structural Alterations in Desmuramylpeptide NOD2 Agonists” (J Med Chem, 2024)
The source made the active and inactive calls. No cut-off for these calls is given here.

How the values were obtained:
[1] = Cytotoxicity against human HEK-Blue hNOD2 cells assessed as metabolic activity at 10 uM incubated for 18 hes by MTT assay; type: toxicity, cell-based; conditions: hek-blue hnod2, 10 µM
PBMC [2] = experiment: Immunomodulatory activity in human PBMC cells assessed as increase in IL-6 level at 2 uM incubated for 18 hrs y flow cytometry analysis; type: functional, cell-based
Outline: (§1)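 Human donor PBMCs (Ficoll-Paque; 1 × 10^6 cells/mL, 500 μL, 48-well plates) were treated with compounds at 2 μM or 0.1% DMSO vehicle without LPS for 18 h at 37 °C, 5% CO2. Cytokines in cell-free supernatants were quantified with the LEGENDplex Human Essential Immune Response Panel on a flow cytometer against kit recombinant standard curves. Four independent replicates; two-way ANOVA with Tukey's test.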

PBMC [3] = experiment: Immunomodulatory activity in human PBMC cells assessed as increase in IL-2 level at 2 uM incubated for 18 hrs y flow cytometry analysis; type: functional, cell-based; outline: as §1
PBMC [4] = experiment: Immunomodulatory activity in human PBMC cells assessed as increase in LPS-induced IP-10 level at 2 uM incubated for 18 hrs y flow cytometry analysis; type: functional, cell-based
Outline: (§2)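 Peripheral blood mononuclear cells from human donors were isolated with Ficoll-Paque and plated in 48-well plates at 1 × 10^6 cells/mL, 500 μL per well. Cells received compounds at 2 μM or 0.1% DMSO together with LPS (10 ng/mL) and were kept for 18 h at 37 °C, 5% CO2. Cytokine levels in cell-free supernatants were measured by flow cytometry with the LEGENDplex Human Essential Immune Response Panel, using the kit's recombinant standard curves. Data come from four independent replicates analysed by two-way ANOVA with Tukey's test.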

PBMC [5] = experiment: Immunomodulatory activity in human PBMC cells assessed as increase in LPS-induced TNF-alpha level at 2 uM incubated for 18 hrs y flow cytometry analysis; type: functional, cell-based
PBMC [6] = experiment: Immunomodulatory activity in human PBMC cells assessed as increase in IFN-gamma level at 2 uM incubated for 18 hrs y flow cytometry analysis; type: functional, cell-based; outline: as §1
PBMC [7] = experiment: Immunomodulatory activity in human PBMC cells assessed as increase in LPS-induced IL-1beta level at 2 uM incubated for 18 hrs y flow cytometry analysis; type: functional, cell-based
PBMC [8] = experiment: Immunomodulatory activity in human PBMC cells assessed as increase in IL-17A level at 2 uM incubated for 18 hrs y flow cytometry analysis; type: functional, cell-based; outline: as §1
PBMC [9] = experiment: Immunomodulatory activity in human PBMC cells assessed as increase in TGF-beta1 level at 2 uM incubated for 18 hrs y flow cytometry analysis; type: functional, cell-based; outline: as §1
PBMC [10] = experiment: Immunomodulatory activity in human PBMC cells assessed as increase in MCP-1 level at 2 uM incubated for 18 hrs y flow cytometry analysis; type: functional, cell-based; outline: as §1
PBMC [11] = experiment: Immunomodulatory activity in human PBMC cells assessed as increase in IL-10 level at 2 uM incubated for 18 hrs y flow cytometry analysis; type: functional, cell-based; outline: as §1
PBMC [12] = experiment: Immunomodulatory activity in human PBMC cells assessed as increase in LPS-induced IL-6 level at 2 uM incubated for 18 hrs y flow cytometry analysis; type: functional, cell-based; outline: as §2
PBMC [13] = experiment: Cytotoxicity against human PBMC cells co-cultured with human K562 cells at 10 uM incubated for 4 hrs; type: functional, cell-based
Outline: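 Killing was scored as the share of K562 cells positive for both CFSE and Sytox blue. Human PBMCs were seeded in 96-well plates at 4 × 10^5 per well and pretreated for 18 h with compounds at 10 μM, with 0.1% DMSO as vehicle. CFSE-stained K562 cells were then added at 1 × 10^4 per well (effector:target 40:1) for 4 h at 37 °C, 5% CO2, before Sytox blue staining and reading on an Attune NxT flow cytometer. Assays ran in duplicate across three independent biological replicates and were analysed by one-way ANOVA with Dunnett's test.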

PBMC [14] = experiment: Immunomodulatory activity in human PBMC cells assessed as increase in TNF-alpha level at 2 uM incubated for 18 hrs y flow cytometry analysis; type: functional, cell-based; outline: as §1
[15] = Cytotoxicity against human PBMC cells at 10 uM incubated for 4 hrs; type: toxicity, cell-based
Outline: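 Direct cytotoxicity was scored as the fraction of Sytox blue-positive cells among human PBMCs cultured without other cells. The PBMCs were exposed to compounds at 10 μM, with 0.1% DMSO as vehicle, alongside a K562 killing assay, then stained with Sytox blue dead cell stain and run on an Attune NxT flow cytometer, with analysis in FlowJo. Each condition was tested in duplicate across three independent biological replicates, and one-way ANOVA with Dunnett's test was applied.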

PBMC [16] = experiment: Immunomodulatory activity in human PBMC cells assessed as increase in IL-1beta level at 2 uM incubated for 18 hrs y flow cytometry analysis; type: functional, cell-based; outline: as §1
PBMC [17] = experiment: Immunomodulatory activity in human PBMC cells assessed as increase in IP-10 level at 2 uM incubated for 18 hrs y flow cytometry analysis; type: functional, cell-based; outline: as §1
PBMC [18] = experiment: Immunomodulatory activity in human PBMC cells assessed as increase in LPS-induced IL-10 level at 2 uM incubated for 18 hrs y flow cytometry analysis; type: functional, cell-based; outline: as §2
PBMC [19] = experiment: Immunomodulatory activity in human PBMC cells assessed as increase in LPS-induced IL-12p70 level at 2 uM incubated for 18 hrs y flow cytometry analysis; type: functional, cell-based
PBMC [20] = experiment: Immunomodulatory activity in human PBMC cells assessed as increase in LPS-induced MCP-1 level at 2 uM incubated for 18 hrs y flow cytometry analysis; type: functional, cell-based; outline: as §2
PBMC [21] = experiment: Immunomodulatory activity in human PBMC cells assessed as increase in IL-4 level at 2 uM incubated for 18 hrs y flow cytometry analysis; type: functional, cell-based; outline: as §1
PBMC [22] = experiment: Immunomodulatory activity in human PBMC cells assessed as increase in LPS-induced IFN-gamma level at 2 uM incubated for 18 hrs y flow cytometry analysis; type: functional, cell-based
PBMC [23] = experiment: Immunomodulatory activity in human PBMC cells assessed as increase in IL-12p70 level at 2 uM incubated for 18 hrs y flow cytometry analysis; type: functional, cell-based; outline: as §1
PBMC [24] = experiment: Immunomodulatory activity in human PBMC cells assessed as increase in IL-8 level at 2 uM incubated for 18 hrs y flow cytometry analysis; type: functional, cell-based; outline: as §1
[25] = Cytotoxicity against human PBMC cells at 10 uM incubated for 4 hrs in presence of MDP; type: toxicity, cell-based

## CCOC(=O)[C@@H](CCC(=O)OCCN1CCOCC1)NC(=O)[C@@H](NC(=O)CNC(=O)/C=C/c1ccc(O)c(OC)c1)C(C)C
[1]
  Activity: Non-toxic

## CCCCCC(=O)Oc1ccc(/C=C/C(=O)NCC(=O)N[C@H](C(=O)N[C@H](CCC(=O)OCC)C(=O)OCC)C(C)C)cc1OC
[1]
  Activity: Non-toxic

## CCOC(=O)CC[C@@H](NC(=O)[C@@H](NC(=O)CNC(=O)/C=C/c1cc(OC)c(O)c(OC)c1)C(C)C)C(=O)OCC
[1]
  Activity: Non-toxic

## CCCCC(CCCC)C(=O)Oc1ccc(/C=C/C(=O)NCC(=O)N[C@H](C(=O)N[C@H](CCC(=O)OCC)C(=O)OCC)C(C)C)cc1OC
[1]
  Activity: Non-toxic

## CCCCCCCCCCCCCCCCCC(=O)Oc1ccc(/C=C/C(=O)NCC(=O)N[C@H](C(=O)N[C@H](CCC(=O)OCC)C(=O)OCC)C(C)C)cc1OC
[1]
  Activity: Non-toxic

## CCCCCC(CCC)C(=O)Oc1ccc(/C=C/C(=O)NCC(=O)N[C@H](C(=O)N[C@H](CCC(=O)OCC)C(=O)OCC)C(C)C)cc1OC (stereo partly specified)
[1]
  Activity: Non-toxic

## CCCCCCCCCC(=O)Oc1ccc(/C=C/C(=O)NCC(=O)N[C@H](C(=O)N[C@H](CCC(=O)OCC)C(=O)OCC)C(C)C)cc1OC
[1]
  Activity: Non-toxic

## CCOC(=O)CC[C@@H](NC(=O)[C@@H](NC(=O)CNC(=O)/C=C/c1ccc(OC(=O)CCCCCCCCCCCCCO)c(OC)c1)C(C)C)C(=O)OCC
[1]
  Activity: Non-toxic

## CCCCCCCCCCCC(=O)Oc1ccc(/C=C/C(=O)NCC(=O)N[C@H](C(=O)N[C@H](CCC(=O)OCC)C(=O)OCC)C(C)C)cc1OC
PBMC [2]
  Activity: Active
PBMC [3]
  Activity: Active
PBMC [4]
  Activity: Active
PBMC [5]
  Activity: Active
PBMC [6]
  Activity: Active
PBMC [7]
  Activity: Active
PBMC [8]
  Activity: Active
PBMC [9]
  Activity: Active
PBMC [10]
  Activity: Active
PBMC [11]
  Activity: Active
PBMC [12]
  Activity: Active
PBMC [13]
  Activity: inactive
PBMC [14]
  Activity: Active
[15]
  Activity: Non-toxic
PBMC [16]
  Activity: Active
PBMC [17]
  Activity: Active
PBMC [18]
  Activity: Active
PBMC [19]
  Activity: Active
PBMC [20]
  Activity: Active
PBMC [21]
  Activity: Active
PBMC [22]
  Activity: Active
PBMC [23]
  Activity: Active
PBMC [24]
  Activity: Active

## CCCCC/C=C\C/C=C\C/C=C\CCCCC(=O)Oc1ccc(/C=C/C(=O)NCC(=O)N[C@H](C(=O)N[C@H](CCC(=O)OCC)C(=O)OCC)C(C)C)cc1OC
[1]
  Activity: Non-toxic

## CCOC(=O)[C@@H](CCC(=O)NCCCNCCCCN)NC(=O)[C@@H](NC(=O)CNC(=O)/C=C/c1ccc(O)c(OC)c1)C(C)C
[1]
  Activity: Non-toxic

## CCCCCCCC(=O)Oc1ccc(/C=C/C(=O)NCC(=O)N[C@H](C(=O)N[C@H](CCC(=O)OCC)C(=O)OCC)C(C)C)cc1OC
[1]
  Activity: Non-toxic

## CCCCCC(C)C(=O)Oc1ccc(/C=C/C(=O)NCC(=O)N[C@H](C(=O)N[C@H](CCC(=O)OCC)C(=O)OCC)C(C)C)cc1OC (stereo partly specified)
[1]
  Activity: Non-toxic

## CCCCCCCCCCCCCCCC(=O)Oc1ccc(/C=C/C(=O)NCC(=O)N[C@H](C(=O)N[C@H](CCC(=O)OCC)C(=O)OCC)C(C)C)cc1OC
[1]
  Activity: Non-toxic

## CC/C=C\C/C=C\C/C=C\CCCCCCCC(=O)Oc1ccc(/C=C/C(=O)NCC(=O)N[C@H](C(=O)N[C@H](CCC(=O)OCC)C(=O)OCC)C(C)C)cc1OC
[1]
  Activity: Non-toxic

## CCCCC(CC)C(=O)Oc1ccc(/C=C/C(=O)NCC(=O)N[C@H](C(=O)N[C@H](CCC(=O)OCC)C(=O)OCC)C(C)C)cc1OC (stereo partly specified)
[1]
  Activity: Non-toxic

## CCCCCCC(CC)C(=O)Oc1ccc(/C=C/C(=O)NCC(=O)N[C@H](C(=O)N[C@H](CCC(=O)OCC)C(=O)OCC)C(C)C)cc1OC (stereo partly specified)
[1]
  Activity: Non-toxic

## CCCCC/C=C\C/C=C\CCCCCCCC(=O)Oc1ccc(/C=C/C(=O)NCC(=O)N[C@H](C(=O)N[C@H](CCC(=O)OCC)C(=O)OCC)C(C)C)cc1OC
[1]
  Activity: Non-toxic

## CCCCCC(CCCCC)C(=O)Oc1ccc(/C=C/C(=O)NCC(=O)N[C@H](C(=O)N[C@H](CCC(=O)OCC)C(=O)OCC)C(C)C)cc1OC
[1]
  Activity: Non-toxic

## CC/C=C\C/C=C\C/C=C\C/C=C\C/C=C\C/C=C\CCC(=O)Oc1ccc(/C=C/C(=O)NCC(=O)N[C@H](C(=O)N[C@H](CCC(=O)OCC)C(=O)OCC)C(C)C)cc1OC
[1]
  Activity: Non-toxic

## CCCCCCCC/C=C\CCCCCCCC(=O)Oc1ccc(/C=C/C(=O)NCC(=O)N[C@H](C(=O)N[C@H](CCC(=O)OCC)C(=O)OCC)C(C)C)cc1OC
[1]
  Activity: Non-toxic

## CCOC(=O)[C@@H](CCC(=O)NCCCCN)NC(=O)[C@@H](NC(=O)CNC(=O)/C=C/c1ccc(O)c(OC)c1)C(C)C
[1]
  Activity: Non-toxic

## CCOC(=O)CC[C@@H](NC(=O)[C@@H](NC(=O)CNC(=O)/C=C/c1ccc(OC(=O)CCCC2CCCCC2)c(OC)c1)C(C)C)C(=O)OCC
[1]
  Activity: Non-toxic

## CCCCCCCCCCCCCC(=O)Oc1ccc(/C=C/C(=O)NCC(=O)N[C@H](C(=O)N[C@H](CCC(=O)OCC)C(=O)OCC)C(C)C)cc1OC
[1]
  Activity: Non-toxic

## CCOC(=O)[C@@H](CCC(=O)NCCCNCCCCNCCCN)NC(=O)[C@@H](NC(=O)CNC(=O)/C=C/c1ccc(O)c(OC)c1)C(C)C
PBMC [2]
  Activity: Active
PBMC [3]
  Activity: Active
PBMC [4]
  Activity: Active
PBMC [5]
  Activity: Active
PBMC [6]
  Activity: Active
PBMC [7]
  Activity: Active
[25]
  Activity: Non-toxic
PBMC [8]
  Activity: Active
PBMC [9]
  Activity: Active
PBMC [10]
  Activity: Active
PBMC [11]
  Activity: Active
PBMC [12]
  Activity: Active
PBMC [13]
  Activity: inactive
PBMC [14]
  Activity: Active
[15]
  Activity: Non-toxic
PBMC [16]
  Activity: Active
PBMC [17]
  Activity: Active
PBMC [18]
  Activity: Active
PBMC [19]
  Activity: Active
PBMC [20]
  Activity: Active
PBMC [21]
  Activity: Active
PBMC [22]
  Activity: Active
PBMC [23]
  Activity: Active
PBMC [24]
  Activity: Active
[1]
  Activity: Non-toxic
